What was measured:
CRBN and Helios (IKZF2) = target: T1, CRBN and Helios (IKZF2) (Homo sapiens, UniProt Q96SW2+Q9UKS7); assay: TR-FRET dimerization assay (CRBN-IKZF2 ternary complex formation); format: binding; conditions: n=1
T1 construct: His (N); Strep (N)
Protocol: A focused library of imide analogs was synthesized and assessed for their ability to induce dimerization between CRBN and Helios in a time-resolved fluorescence energy transfer (TR-FRET) assay (FIG. 1A).
Prior to TR-FRET measurements being conducted, the reactions were incubated for 15 min at rt. […] The TR-FRET signal of each data point was extracted by calculating the 520/490 nm ratios. Data from single measurements (n=1), each calculated as an average of at least three technical replicates per well per experiment are presented in Table 1.
BODIPY-labeled CRBN in complex with Damage Specific DNA Binding Protein 1 (DDB1) harboring an internal deletion of the flexible BPB propeller (DDB1AB-CRBN) and in vitro biotinylated IKZF2 were treated with increasing concentrations of the indicated compounds in the presence of tracer amounts of Terbium-Streptavidin (Tb-SA). Compound-induced recruitment of IKZF2 to CRBN was quantified following the 520/490 TR-FRET ratio using a PHERAstar® plate reader (BMG) utilizing two synchronized PMTs to reduce background.

GSPT1 = GSPT1 (Homo sapiens, UniProt P15170+Q96SW2); assay: Cellular degradation assay, eGFP-GSPT1 fusion with mCherry reporter in Flp-In 293 cells; format: cell-based; design: expressed in transfected cells; host or cells: Flp-In 293; conditions: for GSPT1 GFP/RFP Relative Abundance: 5 h incubation, n=1; for DC50: half degradation at 5 h (DC50,5 h), triplicate, 11 point dose response
GSPT1, sequence (P15170 whole entry, the tested form may be a part): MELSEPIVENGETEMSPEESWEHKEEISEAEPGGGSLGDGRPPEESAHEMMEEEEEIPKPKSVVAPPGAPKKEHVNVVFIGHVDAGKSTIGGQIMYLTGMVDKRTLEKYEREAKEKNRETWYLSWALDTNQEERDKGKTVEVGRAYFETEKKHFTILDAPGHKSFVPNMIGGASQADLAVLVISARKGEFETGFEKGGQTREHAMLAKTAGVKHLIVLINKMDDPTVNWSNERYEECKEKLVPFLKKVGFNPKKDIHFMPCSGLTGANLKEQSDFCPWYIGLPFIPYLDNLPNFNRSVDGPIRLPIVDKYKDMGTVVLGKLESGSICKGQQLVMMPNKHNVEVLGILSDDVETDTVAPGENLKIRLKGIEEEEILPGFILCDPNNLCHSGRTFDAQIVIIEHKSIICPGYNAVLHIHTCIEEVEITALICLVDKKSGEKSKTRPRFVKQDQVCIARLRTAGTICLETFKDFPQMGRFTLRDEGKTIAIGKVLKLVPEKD
GSPT1, sequence (Q96SW2 whole entry, the tested form may be a part): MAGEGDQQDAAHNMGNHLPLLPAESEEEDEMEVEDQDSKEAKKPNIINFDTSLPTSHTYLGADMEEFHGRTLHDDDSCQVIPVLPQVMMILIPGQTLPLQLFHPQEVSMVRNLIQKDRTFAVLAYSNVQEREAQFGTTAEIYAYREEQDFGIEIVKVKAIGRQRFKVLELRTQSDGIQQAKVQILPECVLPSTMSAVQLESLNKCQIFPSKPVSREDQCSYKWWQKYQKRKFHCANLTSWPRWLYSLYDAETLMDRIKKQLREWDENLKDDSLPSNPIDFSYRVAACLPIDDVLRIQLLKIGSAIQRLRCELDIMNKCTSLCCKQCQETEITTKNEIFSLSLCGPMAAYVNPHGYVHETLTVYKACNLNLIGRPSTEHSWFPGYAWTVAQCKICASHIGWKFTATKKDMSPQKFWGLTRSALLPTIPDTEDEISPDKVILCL
GSPT1, sequence (Q16531 whole entry partner, the tested form may be a part): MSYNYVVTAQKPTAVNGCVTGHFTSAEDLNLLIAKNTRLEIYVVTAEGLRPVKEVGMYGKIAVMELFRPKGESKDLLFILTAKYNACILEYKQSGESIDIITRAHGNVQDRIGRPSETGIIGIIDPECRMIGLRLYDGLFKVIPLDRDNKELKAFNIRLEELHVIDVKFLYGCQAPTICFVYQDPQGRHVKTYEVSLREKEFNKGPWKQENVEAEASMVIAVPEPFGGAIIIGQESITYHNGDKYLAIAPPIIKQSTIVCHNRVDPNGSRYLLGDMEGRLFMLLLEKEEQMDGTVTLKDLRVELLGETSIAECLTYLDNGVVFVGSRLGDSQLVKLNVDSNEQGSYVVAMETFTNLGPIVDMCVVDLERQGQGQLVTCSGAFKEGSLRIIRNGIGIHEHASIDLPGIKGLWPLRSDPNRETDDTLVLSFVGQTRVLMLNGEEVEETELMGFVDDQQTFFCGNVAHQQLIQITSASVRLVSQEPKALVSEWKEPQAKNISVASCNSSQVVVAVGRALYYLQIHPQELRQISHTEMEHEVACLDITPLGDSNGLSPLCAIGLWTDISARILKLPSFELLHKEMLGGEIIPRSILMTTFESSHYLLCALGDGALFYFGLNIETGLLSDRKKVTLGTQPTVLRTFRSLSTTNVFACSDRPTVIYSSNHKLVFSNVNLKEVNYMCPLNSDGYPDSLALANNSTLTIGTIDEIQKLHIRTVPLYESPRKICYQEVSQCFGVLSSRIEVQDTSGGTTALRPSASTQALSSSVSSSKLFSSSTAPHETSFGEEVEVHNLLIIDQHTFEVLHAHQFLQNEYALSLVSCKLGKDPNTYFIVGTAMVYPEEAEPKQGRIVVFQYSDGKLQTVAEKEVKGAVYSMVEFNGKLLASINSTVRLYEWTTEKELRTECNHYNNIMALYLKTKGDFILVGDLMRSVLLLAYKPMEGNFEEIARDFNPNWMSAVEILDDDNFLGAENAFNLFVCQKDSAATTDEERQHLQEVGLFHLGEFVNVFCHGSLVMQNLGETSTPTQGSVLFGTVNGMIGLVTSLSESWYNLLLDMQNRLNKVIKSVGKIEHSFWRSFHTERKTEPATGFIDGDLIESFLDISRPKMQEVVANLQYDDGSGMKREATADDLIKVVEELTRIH
Protocol: (§1) IKZF1Δ, IKZF2Δ, GSPT1 and SALL4 ZnF1-2 were subcloned into mammalian pcDNA5/FRT Vector (Ampicillin and Hygromycin B resistant) modified to contain MCS-eGFP-P2A-mCherry. […] Following 2-3 passage cycle, FACS (FACSAria™ II, BD) was used to enrich for cells expressing eGFP and mCherry. Cells stably expressing the IKZF1Δ, IKZF2Δ, GSPT1 or SALL4 Znf1-2 GFP fusions with mCherry reporter were seeded at 30-50% confluency in 384-well plates with 50 μL FluoroBrite™ DMEM media (Thermo Fisher Scientific, A18967) containing 10% FBS per well a day before compound treatment. Compound titrations were dispensed using a D300e Digital Dispenser (HP), normalized to 0.5% DMSO, and incubated with cells for 5 hours.
(§2) The resulting images were analyzed using CellProfiler™. A series of image analysis steps (‘image analysis pipeline’) was constructed. First, the red and green channels were aligned and cropped to target the middle of each well (to avoid analysis of heavily clumped cells at the edges), and a background illumination function was calculated for both red and green channels of each well individually and subtracted to correct for illumination variations across the 384-well plate from various sources of error. An additional step was then applied to the green channel to suppress the analysis of large auto fluorescent artifacts and enhance the analysis of cell specific fluorescence by way of selecting for objects under a given size, 30 A.U., and with a given shape, speckles. mCherry-positive cells were then identified in the red channel filtering for objects between 8-60 pixels in diameter and using intensity to distinguish between clumped objects. The green channel was then segmented into GFP positive and negative areas and objects were labeled as GFP positive if at least 40% of it overlapped with a GFP positive area. The fraction of GFP-positive cells/mCherry-positive cells in each well was then calculated, and the green and red images were rescaled for visualization.
(§3) The degradation assay was performed as described above. […] Degradation was measured after 5 h of compound treatment and the concentrations that lead to half degradation at 5 h (DC50,5 h) were calculated using the nonlinear fit variable slope model (GraphPad Software).

IKZF1 = target: T2, IKZF1 (Homo sapiens, UniProt Q13422); assay: Cellular degradation assay, eGFP-IKZF1Δ fusion with mCherry reporter in Flp-In 293 cells; format: cell-based; conditions: for IKZF1 GFP/RFP Relative Abundance: 5 h incubation, n=1; for potency of IKZF1 degradation, in words: Table 3 summary; for DC50: half degradation at 5 h (DC50,5 h), triplicate, 11 point dose response
T2 construct: expressed in transfected cells; host or cells: Flp-In 293
T2 sequence (Q13422 83-213 isoform Q13422-7 limits assumed): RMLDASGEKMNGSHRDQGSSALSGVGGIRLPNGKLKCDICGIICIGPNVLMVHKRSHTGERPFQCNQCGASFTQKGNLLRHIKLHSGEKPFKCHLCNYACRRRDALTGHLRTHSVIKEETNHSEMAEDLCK
T2 sequence (Q96SW2 whole entry partner, the tested form may be a part): as the sequence (Q96SW2 whole entry, the tested form may be a part) above
T2 sequence (Q16531 2-1140 partner limits assumed): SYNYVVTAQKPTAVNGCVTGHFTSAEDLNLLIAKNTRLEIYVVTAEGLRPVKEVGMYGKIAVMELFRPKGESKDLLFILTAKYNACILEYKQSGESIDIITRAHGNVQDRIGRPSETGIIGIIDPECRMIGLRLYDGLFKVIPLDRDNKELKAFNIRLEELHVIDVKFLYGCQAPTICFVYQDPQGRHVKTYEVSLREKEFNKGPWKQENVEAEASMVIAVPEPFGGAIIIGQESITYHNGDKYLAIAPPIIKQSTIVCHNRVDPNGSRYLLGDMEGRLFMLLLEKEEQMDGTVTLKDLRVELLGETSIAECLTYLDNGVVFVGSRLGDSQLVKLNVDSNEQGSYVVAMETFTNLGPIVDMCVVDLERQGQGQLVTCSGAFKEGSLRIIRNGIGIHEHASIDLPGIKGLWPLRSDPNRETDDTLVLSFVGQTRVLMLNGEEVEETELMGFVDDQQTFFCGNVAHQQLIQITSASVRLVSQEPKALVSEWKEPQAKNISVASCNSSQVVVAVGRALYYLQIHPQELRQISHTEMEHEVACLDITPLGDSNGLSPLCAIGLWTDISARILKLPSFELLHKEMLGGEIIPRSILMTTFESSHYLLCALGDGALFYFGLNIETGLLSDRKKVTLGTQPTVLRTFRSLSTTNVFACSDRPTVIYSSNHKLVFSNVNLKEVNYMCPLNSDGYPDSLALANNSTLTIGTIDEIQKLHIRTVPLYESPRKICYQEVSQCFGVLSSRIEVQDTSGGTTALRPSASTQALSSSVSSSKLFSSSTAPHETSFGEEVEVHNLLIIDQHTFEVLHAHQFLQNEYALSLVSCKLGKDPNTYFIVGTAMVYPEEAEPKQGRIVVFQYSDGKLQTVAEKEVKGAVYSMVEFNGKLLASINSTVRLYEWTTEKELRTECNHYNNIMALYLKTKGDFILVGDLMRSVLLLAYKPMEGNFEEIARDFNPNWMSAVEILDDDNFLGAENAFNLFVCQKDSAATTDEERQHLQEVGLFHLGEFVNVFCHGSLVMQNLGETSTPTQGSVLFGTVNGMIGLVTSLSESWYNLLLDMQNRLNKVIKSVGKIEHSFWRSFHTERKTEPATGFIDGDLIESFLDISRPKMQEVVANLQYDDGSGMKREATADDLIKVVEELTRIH
Protocol: as §1, §2, §3

IKZF2 = assay: Cellular degradation assay, eGFP-IKZF2Δ fusion with mCherry reporter in Flp-In 293 cells; format: cell-based; conditions: for IKZF2 GFP/RFP Relative Abundance: 5 h incubation, n=1; for DC50: half degradation at 5 h (DC50,5 h), triplicate, 11 point dose response
Protocol: as §1, §2, §3

[1] = compound concentration 6.6667E−05
[2] = compound concentration 6.6667E−06
[3] = compound concentration 6.6667E−07 (667 nM)
[4] = compound concentration 2.00E−05
[5] = compound concentration 2.00E−06
[6] = compound concentration 2.00E−07

T1 sequence (Q96SW2 whole entry): as the sequence (Q96SW2 whole entry, the tested form may be a part) above
T1 sequence (Q9UKS7 whole entry): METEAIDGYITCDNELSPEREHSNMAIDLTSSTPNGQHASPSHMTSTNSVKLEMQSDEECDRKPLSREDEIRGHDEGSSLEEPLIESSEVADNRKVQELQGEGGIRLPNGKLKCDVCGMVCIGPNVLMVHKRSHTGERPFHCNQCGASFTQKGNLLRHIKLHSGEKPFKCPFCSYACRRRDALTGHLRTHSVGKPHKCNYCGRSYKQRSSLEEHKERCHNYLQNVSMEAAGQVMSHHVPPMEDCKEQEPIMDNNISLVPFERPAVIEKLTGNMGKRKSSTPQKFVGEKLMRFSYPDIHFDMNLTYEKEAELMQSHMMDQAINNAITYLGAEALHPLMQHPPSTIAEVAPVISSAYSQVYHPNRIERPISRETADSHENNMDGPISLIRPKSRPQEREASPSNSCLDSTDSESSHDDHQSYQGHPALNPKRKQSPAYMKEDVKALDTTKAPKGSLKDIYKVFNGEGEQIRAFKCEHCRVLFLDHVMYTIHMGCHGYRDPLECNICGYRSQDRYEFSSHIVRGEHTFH

Row | Compound | TR-FRET-IKZF2 (Normalized to CC-885) (CRBN and Helios (IKZF2); [1]) | TR-FRET-IKZF2 (Normalized to CC-885) (CRBN and Helios (IKZF2); [2]) | TR-FRET-IKZF2 (Normalized to CC-885) (CRBN and Helios (IKZF2); [3]) | GSPT1 GFP/RFP Relative Abundance (GSPT1; [4]) | GSPT1 GFP/RFP Relative Abundance (GSPT1; [5]) | GSPT1 GFP/RFP Relative Abundance (GSPT1; [6]) | IKZF1 GFP/RFP Relative Abundance (IKZF1; [4]) | IKZF1 GFP/RFP Relative Abundance (IKZF1; [5]) | IKZF1 GFP/RFP Relative Abundance (IKZF1; [6]) | IKZF2 GFP/RFP Relative Abundance (IKZF2; [4]) | IKZF2 GFP/RFP Relative Abundance (IKZF2; [5]) | IKZF2 GFP/RFP Relative Abundance (IKZF2; [6]) | DC50 (GSPT1) [nM] | potency of IKZF1 degradation, in words (IKZF1) | DC50 (IKZF1) [nM] | DC50 (IKZF2) [nM] | degradation selectivity IKZF2/IKZF1 (IKZF2; from DC50 values of Table 3) [fold]
1 | Cc1ccc(NC(=O)OCc2cccc(NC3=CC(=O)N(C4CCC(=O)NC4=O)C3=O)c2)cc1Cl (stereo not drawn) [Compound 48, 3-((1-(2,6-dioxopiperidin-3-yl)-2,5-dioxo-2,5-dihydro-1H-pyrrol-3-yl)amino)benzyl (3-chloro-4-methylphenyl)carbamate] | 0.140 | 0.079 | 0.044 | 1.591 | 0.365 | 0.579 | 1.041 | 0.903 | 1.000 | 1.053 | 1.076 | 1.057 |  |  |  |  | 
2 | Cc1ccc(NC(=O)c2cccc(NC3=CC(=O)N(C4CCC(=O)NC4=O)C3=O)c2)cc1Cl (stereo not drawn) [Compound 49, N-(3-chloro-4-methylphenyl)-3-((1-(2,6-dioxopiperidin-3-yl)-2,5-dioxo-2,5-dihydro-1H-pyrrol-3-yl)amino)benzamide] | 0.801 | 0.690 | 0.472 | 0.125 | 0.055 | 0.069 | 0.268 | 0.187 | 0.314 | 0.665 | 0.612 | 0.830 | > 1000 | most potent against IKZF1 | 1.9 | 7.2 | 
3 | Cc1ccc(NC(=O)Cc2cccc(NC3=CC(=O)N(C4CCC(=O)NC4=O)C3=O)c2)cc1Cl (stereo not drawn) [Compound 50, N-(3-chloro-4-methylphenyl)-2-(3-((1-(2,6-dioxopiperidin-3-yl)-2,5-dioxo-2,5-dihydro-1H-pyrrol-3-yl)amino)phenyl)acetamide] | 1.011 | 0.889 | 0.848 | 0.645 | 0.702 | 0.643 | 0.073 | 0.068 | 0.093 | 0.188 | 0.195 | 0.267 |  |  |  |  | 
4 | Cc1ccc(NC(=O)Nc2cccc3c(NC4=CC(=O)N(C5CCC(=O)NC5=O)C4=O)cccc23)cc1Cl (stereo not drawn) [Compound 124, 1-(3-chloro-4-methylphenyl)-3-(5-((1-(2,6-dioxopiperidin-3-yl)-2,5-dioxo-2,5-dihydro-1H-pyrrol-3-yl)amino)naphthalen-1-yl)urea] | 0.159 | 0.130 | 0.077 |  |  |  | 0.689 | 0.978 | 1.005 | 0.829 | 1.015 | 0.985 |  |  |  |  | 
5 | Cc1ccc(NC(=O)COc2cccc(NC3=CC(=O)N(C4CCC(=O)NC4=O)C3=O)c2)cc1Cl (stereo not drawn) [Compound 125, N-(3-chloro-4-methylphenyl)-2-(3-((1-(2,6-dioxopiperidin-3-yl)-2,5-dioxo-2,5-dihydro-1H-pyrrol-3-yl)amino)phenoxy)acetamide] |  |  |  |  |  |  |  |  |  |  |  |  | > 1000 | most potent against IKZF1 | 1.7 | 24 | 
6 | Cc1ccc(NC(=O)NCCc2cccc(NC3=CC(=O)N(C4CCC(=O)NC4=O)C3=O)c2)cc1C(F)(F)F (stereo not drawn) [Compound 126, 1-(3-((1-(2,6-dioxopiperidin-3-yl)-2,5-dioxo-2,5-dihydro-1H-pyrrol-3-yl)amino)phenethyl)-3-(4-methyl-3-(trifluoromethyl)phenyl)urea] | 1.762 | 1.603 | 1.420 |  |  |  | 0.177 | 0.072 | 0.100 | 0.059 | 0.033 | 0.047 |  |  |  |  | 
7 | Cc1ccc(N(C)C(=O)CCc2cccc(NC3=CC(=O)N(C4CCC(=O)NC4=O)C3=O)c2)cc1Cl (stereo not drawn) [Compound 127, N-(3-chloro-4-methylphenyl)-3-(3-((1-(2,6-dioxopiperidin-3-yl)-2,5-dioxo-2,5-dihydro-1H-pyrrol-3-yl)amino)phenyl)-N-methylpropanamide] | 1.390 | 1.362 | 1.195 |  |  |  | 0.313 | 0.079 | 0.079 | 0.266 | 0.047 | 0.060 |  |  |  |  | 
8 | CC(C)(NC(=O)Cc1cccc(C(F)(F)F)c1)c1cccc(NC2=CC(=O)N(C3CCC(=O)NC3=O)C2=O)c1 (stereo not drawn) [Compound 139, N-(2-(3-((1-(2,6-dioxopiperidin-3-yl)-2,5-dioxo-2,5-dihydro-1H-pyrrol-3-yl)amino)phenyl)propan-2-yl)-2-(3-(trifluoromethyl)phenyl)acetamide] |  |  |  |  |  |  |  |  |  |  |  |  | > 1000 |  | 167 | 17 | 10
9 | CC(NC(=O)Cc1cccc(C(F)(F)F)c1)c1cccc(NC2=CC(=O)N(C3CCC(=O)NC3=O)C2=O)c1 (stereo not drawn) [Compound 142, N-(1-(3-((1-(2,6-dioxopiperidin-3-yl)-2,5-dioxo-2,5-dihydro-1H-pyrrol-3-yl)amino)phenyl)ethyl)-2-(3-(trifluoromethyl)phenyl)acetamide] |  |  |  |  |  |  |  |  |  |  |  |  | > 1000 |  | 16 | 16 | 
10 | O=C1CCC(N2C(=O)C=C(Nc3cccc(CCC(=O)Nc4cccc(C(F)(F)F)c4)c3)C2=O)C(=O)N1 (stereo not drawn) [Compound 148, 3-(3-((1-(2,6-dioxopiperidin-3-yl)-2,5-dioxo-2,5-dihydro-1H-pyrrol-3-yl)amino)phenyl)-N-(3-(trifluoromethyl)phenyl)propanamide] |  |  |  |  |  |  |  |  |  |  |  |  | > 1000 |  | 3.2 | 13 | 

— patent US12227488B2, “Small molecule degraders of Helios and methods of use” (DANA-FARBER CANCER INSTITUTE, INC., priority 2018, dated 2025)
